In data set [1] the test system is sodium channel. The experiment in a line: Guanidine influx assay (14C-guanidine radiotracer flux, in vitro). Conditions: guanidine influx assay using a known cell line that expresses a sodium channel; activity level class. The format is cell-based, human or rat. In a few lines: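 Cells stably expressing human or rat sodium channels (~100,000/well, 20–24 h) were exposed in low-sodium choline buffer to test agent plus aconitine activator and 14C-guanidine at ambient temperature. Intracellular 14C-guanidine was counted by scintillation; IC50 fitted by 4-parameter logistic over half-dilutions around 1 μM.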

In data set [2] the target is CYP3A4 (Homo sapiens, UniProt P08684). The experiment in a line: Cytochrome P450 (CYP450) Inhibition Assay, CYP3A4 (Vivid fluorescence, BOMCC substrate). Conditions: human, P450 Baculosomes (recombinant CYP3A4), probe BOMCC (Vivid substrate).
CYP3A4, sequence (P08684 whole entry): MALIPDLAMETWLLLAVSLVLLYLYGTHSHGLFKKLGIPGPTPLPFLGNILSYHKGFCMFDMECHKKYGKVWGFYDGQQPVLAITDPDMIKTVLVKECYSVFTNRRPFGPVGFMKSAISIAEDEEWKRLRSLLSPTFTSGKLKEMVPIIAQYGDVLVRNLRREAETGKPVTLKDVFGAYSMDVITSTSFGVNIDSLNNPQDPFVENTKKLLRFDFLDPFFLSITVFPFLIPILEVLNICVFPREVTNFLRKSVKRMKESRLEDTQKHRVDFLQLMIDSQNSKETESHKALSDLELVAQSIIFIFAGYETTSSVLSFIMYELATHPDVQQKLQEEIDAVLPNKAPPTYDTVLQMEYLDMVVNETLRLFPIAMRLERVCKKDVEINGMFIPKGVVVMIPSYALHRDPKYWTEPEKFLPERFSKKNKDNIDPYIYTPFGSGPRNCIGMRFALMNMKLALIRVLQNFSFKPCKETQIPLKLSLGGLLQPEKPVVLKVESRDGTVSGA

From US8263606B2 (Xenon Pharmaceuticals Inc., priority 2008, dated 2012) come the findings set out here.

Bounds are passed on as bounds.

`O=C1N(C(c2ccccc2)c2ccccc2)c2ccccc2C12COc1cc3c(cc12)OCCO3` (stereo not drawn) [Example 2.11, 1′-(diphenylmethyl)-2,3-dihydrospiro[furo[2,3-g][1,4]benzodioxine-8,3′-indol]-2′(1′H)-one] came in with a melting point of 183 to 185 °C. In addition, in data set [1], the IC50 lay within 1 to 10 µM. Also, the inhibition at 10 µM in data set [2] was under 50%.
The like results for `Cc1nc2cc3c(cc2o1)C1(CO3)C(=O)N(C(c2ccccc2)c2ccccc2)c2ccccc21` (stereo not drawn) [Example 2.14, 1′-(diphenylmethyl)-2-methylspiro[furo[2,3-f][1,3]benzoxazole-7,3′-indol]-2′(1′H)-one] were, in that order, 240 to 242 °C, at least 10 µM and under 50%.
Taken in the same sequence, the figures for `Cn1c(=O)oc2cc3c(cc21)OCC31C(=O)N(C(c2ccccc2)c2ccccc2)c2ccccc21` (stereo not drawn) [Example 2.16, 1′-(diphenylmethyl)-3-methylspiro[furo[2,3-f][1,3]benzoxazole-7,3′-indole]-2,2′(1′H,3H)-dione] were 228 to 229 °C, at least 10 µM and under 50%.
The like results for `CC(C)CCN1C(=O)C2(COc3cc4c(cc32)OCCO4)c2c1ccc1ncsc21` (stereo not drawn) [Example 2.24, 6′-isopentyl-3,7-dihydro-2H-spiro[benzofuro[5,6-b][1,4]dioxine-8,8′-thiazolo[5,4-e]indol]-7′(6′H)-one] were, in that order, 169 to 171 °C, 0.001 to 0.1 µM and over 50%.
Turning to `O=C1N(Cc2ccc(C(F)(F)F)o2)c2cc3c(cc2C12COc1cc4c(cc12)CCO4)OCCO3` (stereo not drawn) [Example 2.25, 6-((5-(trifluoromethyl)furan-2-yl)methyl)-2,3,5′,6′-tetrahydro-2′H-spiro[f-[1,4]dioxino[2,3-f]indole-8,3′-benzofuro[6,5-b]furan]-7(6H)-one], the melting point fell in the range of 189 to 191 °C. Besides, in data set [1], the IC50 lay within 0.1 to 1 µM. The inhibition at 10 µM in data set [2] was over 50%.
Consider `O=C1N(C[C@H]2CCCO2)c2cc3c(cc2C12COc1cc4c(cc12)CCO4)OCCO3` (stereo partly drawn) [Example 2.26, 6-(((R)-tetrahydrofuran-2-yl)methyl)-2,3,5′,6′-tetrahydro-2′H-spiro[[1,4]dioxino[2,3-f]indole-8,3′-benzofuro[6,5-b]furan]-7(6H)-one], for which the melting point fell in the range of 220 to 225 °C. In addition, the IC50 in data set [1] was in the range of 1 to 10 µM. The inhibition at 10 µM in data set [2] is under 50%.
The like results for `CN1CCOc2cc3c(cc21)C1(CO3)C(=O)N(Cc2ccc(C(F)(F)F)o2)c2ccccc21.Cl` (stereo not drawn) [Example 2.28, 1-methyl-1′-{[5-(trifluoromethyl)furan-2-yl]methyl}-2,3-dihydro-1H-spiro[furo[3,2-g][1,4]benzoxazine-8,3′-indol]-2′(1′H)-one hydrochloride] were, in that order, 105 °C (dec.), 0.1 to 1 µM and over 50%.
Taken in the same sequence, the figures for `CN1CCOc2cc3c(cc21)C1(CO3)C(=O)N(C[C@H]2CCCO2)c2ccccc21.Cl` (stereo partly drawn) [Example 2.29, 1-methyl-1′-[(2R)-tetrahydrofuran-2-ylmethyl]-2,3-dihydro-1H-spiro[furo[3,2-g][1,4]benzoxazine-8,3′-indol]-2′(1′H)-one hydrochloride] were > 135 °C (dec.), 0.1 to 1 µM and under 50%.
Take `CN1CCOc2cc3c(cc21)OCC31C(=O)N(C[C@H]2CCCO2)c2ccccc21` (stereo partly drawn) [Example 2.30, 4-methyl-1′-[(2R)-tetrahydrofuran-2-ylmethyl]-3,4-dihydro-2H-spiro[furo[2,3-g][1,4]benzoxazine-8,3′-indol]-2′(1′H)-one]: the melting point lay within 138 to 140 °C. For the same compound, the IC50 in data set [1] was 1 to 10 µM. For the same compound, the inhibition at 10 µM in data set [2] was over 50%.
The like results for `O=C1N(Cc2ncccc2C(F)(F)F)c2ccccc2C12COc1cc3c(cc12)OC(F)(F)O3` (stereo not drawn) [Example 2.36, 2,2-difluoro-1′-{[3-(trifluoromethyl)pyridin-2-yl]methyl}spiro[furo[2,3-f][1,3]benzodioxole-7,3′-indol]-2′(1′H)-one] were, in that order, 200 to 201 °C, 1 to 10 µM and under 50%.
The like results for `COc1ccc(CN2C(=O)C3(COc4cc5c(cc43)CCO5)c3c2ccc2ncccc32)cc1` (stereo not drawn) [Example 2.38, 3′-(4-methoxybenzyl)-5,6-dihydrospiro[benzo[1,2-b:5,4-b′]difuran-3,1′-pyrrolo[3,2-f]quinolin]-2′(3′H)-one] were, in that order, 169 to 170 °C, 0.1 to 1 µM and over 50%.
Taken in the same sequence, the figures for `COc1ccc(CN2C(=O)C3(COc4cc(O)c(C#N)cc43)c3ccccc32)cc1` (stereo not drawn) [Example 2.39, 6-hydroxy-1′-(4-methoxybenzyl)-2′-oxo-1′,2′-dihydrospiro[1-benzofuran-3,3′-indole]-5-carbonitrile] were 112 to 114 °C, 1 to 10 µM and over 50%.
`COc1ccc(CN2C(=O)C3(COc4cc(F)c(C#N)cc43)c3ccccc32)cc1` (stereo not drawn) [Example 2.40, 6-fluoro-1′-(4-methoxybenzyl)-2′-oxo-1′,2′-dihydrospiro[1-benzofuran-3,3′-indole]-5-carbonitrile]: the melting point was in the range of 142 to 143 °C. Moreover, in data set [1], the IC50 lay in the range of 1 to 10 µM. Also, the inhibition at 10 µM in data set [2] was over 50%.
The like results for `COc1ccc(CN2C(=O)C3(COc4cc5c(C)noc5cc43)c3ccccc32)cc1` (stereo not drawn) [Example 2.41, 1′-(4-methoxybenzyl)-3-methylspiro[furo[2,3-f][1,2]benzisoxazole-7,3′-indol]-2′(1′H)-one] were, in that order, 183 to 184 °C, 1 to 10 µM and over 50%.
Taken in the same sequence, the figures for `O=C1N(c2ccc(F)cc2)c2ccccc2C12COc1cc3c(cc12)OCCO3` (stereo not drawn) [Example 2.45, 1′-(4-fluorophenyl)-2,3-dihydrospiro[furo[2,3-g][1,4]benzodioxine-8,3′-indol]-2′(1′H)-one] were 210 to 212 °C, 0.001 to 0.1 µM and under 50%.
Regarding `O=C1N(Cc2ccccn2)c2ccc(Br)cc2C12COc1cc3c(cc12)OCCO3` (stereo not drawn) [Example 2.49, 5′-bromo-1′-(pyridin-2-ylmethyl)-2,3-dihydrospiro[furo[2,3-g][1,4]-benzodioxine-8,3′-indol]-2′(1′H)-one], the melting point was over 250 °C. Moreover, in data set [1], the IC50 is 0.001 to 0.1 µM. The inhibition at 10 µM in data set [2] is over 50%.
Taken in the same sequence, the figures for `N#Cc1ccc2c(c1)C1(COc3cc4c(cc31)OCCO4)C(=O)N2Cc1ccccn1` (stereo not drawn) [Example 2.50, 2′-oxo-1′-(pyridin-2-ylmethyl)-1′,2,2′,3-tetrahydrospiro[furo[2,3-g][1,4]benzodioxine-8,3′-indole]-5′-carbonitrile] were 198 to 199 °C, 0.001 to 0.1 µM and under 50%.
The like results for `O=C1N(C(c2ccccc2)c2ccccc2)c2ccccc2C12COc1cc(F)c(F)cc12` (stereo not drawn) [Example 2.61, 1′-(diphenylmethyl)-5,6-difluorospiro[1-benzofuran-3,3′-indol]-2′(1′H)-one] were, in that order, 213 to 216 °C, at least 10 µM and under 50%.
The like results for `COc1ccc2c(c1OC)C1(COc3cc4c(cc31)OCCO4)C(=O)N2Cc1ccc(C(F)(F)F)o1` (stereo not drawn) [Example 2.63, 4′,5′-dimethoxy-1′-{[5-(trifluoromethyl)furan-2-yl]methyl}-2,3-dihydrospiro[furo[2,3-g][1,4]benzodioxine-8,3′-indol]-2′(1′H)-one] were, in that order, 62 to 65 °C, 0.1 to 1 µM and over 50%.
Compound `COCCOCCN1C(=O)C2(COc3cc4c(cc32)OCCO4)c2c(OC)ccc(OC)c21` (stereo not drawn) [Example 2.64, 4′,7′-dimethoxy-1′-[2-(2-methoxyethoxy)ethyl]-2,3-dihydrospiro[furo[2,3-g][1,4]benzodioxine-8,3′-indol]-2′(1′H)-one] gave a melting point of 109 to 110 °C. In addition, in data set [1], the IC50 lay in the range of 0.1 to 1 µM. Further, the inhibition at 10 µM in data set [2] is under 50%.
Taken in the same sequence, the figures for `O=C1Nc2cccc(Cl)c2C12COc1cc3c(cc12)CCO3` (stereo not drawn) [Example 3.1, 4′-chloro-5,6-dihydrospiro[benzo[1,2-b:5,4-b′]difuran-3,3′-indol]-2′(1′H)-one] were over 200 °C, 0.001 to 0.1 µM and over 50%.
Taken in the same sequence, the figures for `Cc1cc2c(cc1C)C1(CO2)C(=O)Nc2ccccc21` (stereo not drawn) [Example 3.3, 5,6-dimethylspiro[1-benzofuran-3,3′-indol]-2′(1′H)-one] were 206 to 207 °C, 0.1 to 1 µM and over 50%.
The like results for `O=C1Nc2ccc(F)cc2C12COc1cc3c(cc12)CCO3` (stereo not drawn) [Example 3.4, 5′-fluoro-5,6-dihydrospiro[benzo[1,2-b:5,4-b′]difuran-3,3′-indol]-2′(1′H)-one] were, in that order, 257 to 259 °C, 1 to 10 µM and over 50%.
The compound `O=C1Nc2cc(F)ccc2C12COc1cc3c(cc12)CCO3` (stereo not drawn) [Example 3.5, 6′-fluoro-5,6-dihydrospiro[benzo[1,2-b:5,4-b′]difuran-3,3′-indol]-2′(1′H)-one] had a melting point of 249 to 251 °C. Besides, the IC50 in data set [1] was 1 to 10 µM. Besides, the inhibition at 10 µM in data set [2] is over 50%.
As for `Cc1noc2cc3c(cc12)C1(CO3)C(=O)Nc2ccccc21` (stereo not drawn) [Example 3.6, 3-methylspiro[furo[3,2-f][1,2]benzisoxazole-5,3′-indol]-2′(1′H)-one], the melting point was in the range of 226 to 227 °C. Also, the IC50 in data set [1] is 0.1 to 1 µM. The inhibition at 10 µM in data set [2] is under 50%.
